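Interpolation was linear, between the two tested concentrations surrounding the appropriate level; five concentrations were tested over 48 hours in 96-well plates. TGI denotes the concentration required for complete inhibition of growth.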
Tests used:
Experiment in all cases: NCI tumour cell line growth inhibition, 48 h
A498 renal = tested on: A498 renal
COLO 205 colon = tested on: COLO 205 colon
DU-145 prostate = tested on: DU-145 prostate
MALME-3M melanoma = tested on: MALME-3M melanoma
MDA-MB-231 breast = tested on: MDA-MB-231 breast
NCI-H23 lung = tested on: NCI-H23 lung
RXF 393 renal = tested on: RXF 393 renal
SK-OV-3 ovarian = tested on: SK-OV-3 ovarian
SR leukemia = tested on: SR leukemia
SW-620 colon = tested on: SW-620 colon
TK-10 renal = tested on: TK-10 renal
UACC-62 melanoma = tested on: UACC-62 melanoma
UO-31 renal = tested on: UO-31 renal
HT29 colon = tested on: HT29 colon

SMILES	TGI (A498 renal) [µM]	TGI (COLO 205 colon) [µM]	TGI (DU-145 prostate) [µM]	TGI (MALME-3M melanoma) [µM]	TGI (MDA-MB-231 breast) [µM]	TGI (NCI-H23 lung) [µM]	TGI (RXF 393 renal) [µM]	TGI (SK-OV-3 ovarian) [µM]	TGI (SR leukemia) [µM]	TGI (SW-620 colon) [µM]	TGI (TK-10 renal) [µM]	TGI (UACC-62 melanoma) [µM]	TGI (UO-31 renal) [µM]	TGI (HT29 colon) [µM]
NS(=O)(=O)c1nnc(NC(=O)C23CC4CC(CC(C4)C2)C3)s1	> 100	> 100	> 100	> 100	> 100	> 100	> 100	> 100	> 100	> 100	> 100	> 100	> 100	
NNC(=O)CC(=O)Nc1cccc(Cl)c1	> 100	> 100	> 100	> 100	> 100	> 100	> 100	> 100	> 100	> 100	> 100	> 100	> 100	> 100
CC(=O)Oc1cc(S(=O)(=O)Nc2n[nH]c(Nc3ccc(C)cc3)n2)c(S)cc1Cl	> 100	> 100	> 100	> 100	> 100	> 100			> 100	> 100	> 100	> 100	> 100	> 100
Cc1cc(S(=O)(=O)N2CCNNC2=O)c(S)cc1Cl	> 100	> 100	> 100	46.2	61		40.9		> 100	> 100	> 100	> 100	> 100	
COC(=O)C1Cc2ccc(O)c(O)c2CN1 (configuration not stated)	> 100	> 100	81.2	98.7	43.3	31.8	> 100	> 100	82.2	40.7	> 100	39	51.8	55.7
S=C(N/N=C(\c1ccccc1)c1ccccn1)NC1CCCCC1	> 100	> 100	> 100	> 100	> 100	> 100	> 100	> 100	> 100	> 100	> 100	> 100	> 100	> 100
COC(=O)/C=C\C(C#N)(C#N)N=Cc1cccc(OC)c1	34.7	5.06	27.7	4.37	29	16.4	9.62	47.1	> 24.5	5.68	4.78	31.8	8.46	10.5
CCCNC(=S)N/N=C(\C)c1ccc(S(=O)(=O)N(C)c2ccccc2)cc1	> 100	> 100	> 100	> 100	> 100	> 100	38.2	97	> 100	> 100	> 91.6	> 100	> 100	> 100
COc1cccc(C23CCCC(C2)NCC3Br)c1OC (configuration not stated)	31.3	27.1	> 100	> 100	> 100	> 100	> 100	> 100	83.1	> 100	> 100	58.1	> 100	> 100
O=[N+]([O-])C(/C=C(\Cl)[N+](=O)[O-])=C1Nc2ccccc2N1	70.4	> 100	> 100	> 100	> 100	> 100	95.9	> 100	75.1	> 100	> 100	> 100	> 100	> 100
CN(CC(=O)O)c1ncc2c(n1)C=CCC2	> 100	> 100	> 100	> 100	> 100	> 100	> 100	> 100	> 100	> 100	> 100	> 100	> 100	> 100
CCCCn1c(CSc2ccc(Cl)cc2)c(C(=O)OCC)c2cc(OC)c(Br)cc21	> 100	> 100	> 100	> 100	> 100	> 100		> 100	> 100	> 100	> 100	> 100	> 100	
COc1ccc(/C=C/C(=O)/C=C/c2ccc(OC)cc2OC)c(OC)c1		51.9	35.3	26.9	78.5	43	37.1	37.7	13.1	83.6	47.3	52.5	41.3	12.7
CCOC(=O)c1cc(-n2nnc3ccccc32)cn1C	> 10	> 10	> 10	> 10	> 10	> 10	> 10	> 10	> 10		> 10	> 10	> 10	> 10
COC(=O)C1CCC(=O)N1C(c1cc(OC)c(OC)c(OC)c1)c1cc(OC)c(OC)c(OC)c1 (configuration not stated)	> 100		> 100		> 100			> 100	> 100	> 100	> 100	> 100	> 100	> 100
Clc1cc2nn(C3CCCCO3)nc2cc1Cl (configuration not stated)		> 100	> 100	> 100	> 100	> 100	> 100	> 100	> 100		> 100	> 100	> 100	> 100
COc1ccc(/C(C)=N/NC(=O)c2ccncc2)c(OC)c1	> 10	> 10	> 10	> 10	> 10	> 10		> 10	> 10	> 10	> 10	> 10	> 10	
COC(=O)C1CCN(C(=O)OC(C)(C)C)CC1	> 100	> 100	> 100	> 100	> 100	> 100			> 100	> 100	> 100	> 100	> 100	> 100

— PubChem BioAssay (NCI)
